Data from US9458113B2 (Boehringer Ingelheim International GmbH, priority 2014, dated 2016).

What follows are molecules tested against Human neutrophil elastase (Homo sapiens (Human), UniProt P08246) (assay: Human Neutrophil Elastase Assay). Conditions: substrate MeOSuc-Ala-Ala-Pro-Val-AMC 250 μM, pH 7.5.
Type: biochemical
Procedure: The following buffers were used: Compound buffer: 100 mM Tris, 500 mM NaCl, adjusted to pH 7.5; Assay buffer: 100 mM Tris, 500 mM NaCl, adjusted to pH 7.5, containing 0.01% BSA.
Assay conditions: Test compounds were prediluted in DMSO and subsequently in compound buffer (5% DMSO final). […] After inactivation of the enzyme, fluorescence intensities were measured at 380 nm excitation and 460 nm emission wavelengths.
Each plate contains wells with a high value control (DMSO+enzyme+substrate) and wells with a low value control (DMSO+inactivated enzyme+substrate). IC50 values were estimated using a sigmoidal concentration response curve with variable slope. Means of low values were taken as 0%, means of high values as 100%.

Sequence of Human neutrophil elastase (P08246 30-247): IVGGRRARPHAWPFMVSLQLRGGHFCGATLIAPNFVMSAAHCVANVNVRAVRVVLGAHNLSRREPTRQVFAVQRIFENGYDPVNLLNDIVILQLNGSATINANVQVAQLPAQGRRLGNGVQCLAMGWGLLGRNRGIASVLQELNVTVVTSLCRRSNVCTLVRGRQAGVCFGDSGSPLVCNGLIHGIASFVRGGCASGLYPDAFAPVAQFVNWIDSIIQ

SMILES | IC50 [nM]
CN1C(=O)N(c2cccc(C(F)(F)F)c2)C2=C(C(=O)CCC2)C1c1ccc(C#N)cc1C(N)=O (single isomer, unassigned) [Example 7a, 5-Cyano-2-[3-methyl-2,5-dioxo-1-(3-trifluoromethyl-phenyl)-1,2,3,4,5,6,7,8-octahydro-quinazolin-4-yl]-benzamide] | < 1
CN1C(=O)N(c2cccc(C(F)(F)F)c2)C2=C(C(=O)CC2)C1c1ccc(C#N)cc1C(N)=O (stereo not drawn) [Example 1, 5-Cyano-2-[3-methyl-2,5-dioxo-1-(3-trifluoromethyl-phenyl)-2,3,4,5,6,7-hexahydro-1H-cyclopentapyrimidin-4-yl]-benzamide] | 5.3
CCNC(=O)c1cc(C#N)ccc1C1C2=C(CCC2=O)N(c2cccc(C(F)(F)F)c2)C(=O)N1C (stereo not drawn) [Example 1.2] | 5.5
CN(C)C(=O)c1cc(C#N)ccc1C1C2=C(CCC2=O)N(c2cccc(C(F)(F)F)c2)C(=O)N1C (stereo not drawn) [Example 1.3] | 5.4
C#CCNC(=O)c1cc(C#N)ccc1C1C2=C(CCC2=O)N(c2cccc(C(F)(F)F)c2)C(=O)N1C (stereo not drawn) [Example 1.4] | 3.7
CN1C(=O)N(c2cccc(C(F)(F)F)c2)C2=C(C(=O)CC2)C1c1ccc(C#N)cc1C(=O)NCC#N (stereo not drawn) [Example 1.5] | 3.1
CN1C(=O)N(c2cccc(C(F)(F)F)c2)C2=C(C(=O)CC2)C1c1ccc(C#N)cc1C(=O)NC1CC1 (stereo not drawn) [Example 1.6] | 6.3
CN1C(=O)N(c2cccc(C(F)(F)F)c2)C2=C(C(=O)CC2)C1c1ccc(C#N)cc1C(=O)N1CCC1 (stereo not drawn) [Example 1.7] | 2.2
CN1C(=O)N(c2cccc(C(F)(F)F)c2)C2=C(C(=O)CC2)C1c1ccc(C#N)cc1C(=O)NCCO (stereo not drawn) [Example 1.8] | 5.7
CN1C(=O)N(c2cccc(C(F)(F)F)c2)C2=C(C(=O)CC2)C1c1ccc(C#N)cc1C(=O)NCCF (stereo not drawn) [Example 1.9] | 5.5
CN1C(=O)N(c2cccc(C(F)(F)F)c2)C2=C(C(=O)CC2)C1c1ccc(C#N)cc1C(=O)N1CCCC1 (stereo not drawn) [Example 1.10] | 3.4
CN1C(=O)N(c2cccc(C(F)(F)F)c2)C2=C(C(=O)CC2)C1c1ccc(C#N)cc1C(=O)N1CC(O)C1 (stereo not drawn) [Example 1.11] | 2.5
CN1C(=O)N(c2cccc(C(F)(F)F)c2)C2=C(C(=O)CC2)C1c1ccc(C#N)cc1C(=O)NC1COC1 (stereo not drawn) [Example 1.12] | 5.3
CN(CCO)C(=O)c1cc(C#N)ccc1C1C2=C(CCC2=O)N(c2cccc(C(F)(F)F)c2)C(=O)N1C (stereo not drawn) [Example 1.13] | 2.9
COCCNC(=O)c1cc(C#N)ccc1C1C2=C(CCC2=O)N(c2cccc(C(F)(F)F)c2)C(=O)N1C (stereo not drawn) [Example 1.14] | 6.5
CN1C(=O)N(c2cccc(C(F)(F)F)c2)C2=C(C(=O)CC2)C1c1ccc(C#N)cc1C(=O)NCCCO (stereo not drawn) [Example 1.15] | 5
CN1C(=O)N(c2cccc(C(F)(F)F)c2)C2=C(C(=O)CC2)C1c1ccc(C#N)cc1C(=O)NCC(F)F (stereo not drawn) [Example 1.16] | 6
CN1C(=O)N(c2cccc(C(F)(F)F)c2)C2=C(C(=O)CC2)C1c1ccc(C#N)cc1C(=O)NC1CCOC1 (stereo not drawn) [Example 1.18] | 6.9
CN1C(=O)N(c2cccc(C(F)(F)F)c2)C2=C(C(=O)CC2)C1c1ccc(C#N)cc1C(=O)NCC(C)(C)O (stereo not drawn) [Example 1.19] | 9.5
COCCCNC(=O)c1cc(C#N)ccc1C1C2=C(CCC2=O)N(c2cccc(C(F)(F)F)c2)C(=O)N1C (stereo not drawn) [Example 1.20] | 5.7
CN1C(=O)N(c2cccc(C(F)(F)F)c2)C2=C(C(=O)CC2)C1c1ccc(C#N)cc1C(=O)NCC(F)(F)F (stereo not drawn) [Example 1.21] | 7.1

SMILES | IC50 [nM]
CN1C(=O)N(c2cccc(C(F)(F)F)c2)C2=C(C(=O)CC2)C1c1ccc(C#N)cc1C(=O)N1CCC(O)CC1 (stereo not drawn) [Example 1.22] | 10.3
CN1C(=O)N(c2cccc(C(F)(F)F)c2)C2=C(C(=O)CC2)C1c1ccc(C#N)cc1C(=O)NC1CCOCC1 (stereo not drawn) [Example 1.23] | 8.4
COCCCN(C)C(=O)c1cc(C#N)ccc1C1C2=C(CCC2=O)N(c2cccc(C(F)(F)F)c2)C(=O)N1C (stereo not drawn) [Example 1.24] | 3.3
CN1CCC(NC(=O)c2cc(C#N)ccc2C2C3=C(CCC3=O)N(c3cccc(C(F)(F)F)c3)C(=O)N2C)CC1 (stereo not drawn) [Example 1.25] | 8
CN1C(=O)N(c2cccc(C(F)(F)F)c2)C2=C(C(=O)CC2)C1c1ccc(C#N)cc1C(=O)NCCS(C)(=O)=O (stereo not drawn) [Example 1.26] | 4.6
CN(Cc1cnn(C)c1)C(=O)c1cc(C#N)ccc1C1C2=C(CCC2=O)N(c2cccc(C(F)(F)F)c2)C(=O)N1C (stereo not drawn) [Example 1.27] | < 1
CN1C(=O)N(c2cccc(C(F)(F)F)c2)C2=C(C(=O)CC2)C1c1ccc(C#N)cc1C(=O)NC1CCS(=O)(=O)C1 (stereo not drawn) [Example 1.28] | 4.3
CN(C)CCNC(=O)c1cc(C#N)ccc1C1C2=C(CCC2=O)N(c2cccc(C(F)(F)F)c2)C(=O)N1C (stereo not drawn) [Example 1.29] | 4.8
CN1CCC(NC(=O)c2cc(C#N)ccc2C2C3=C(CCC3=O)N(c3cccc(C(F)(F)F)c3)C(=O)N2C)C1 (stereo not drawn) [Example 1.30] | 7.4
CN1C(=O)N(c2cccc(C(F)(F)F)c2)C2=C(C(=O)CC2)C1c1ccc(C#N)cc1C(=O)N1CCN(C2CC2)CC1 (stereo not drawn) [Example 1.33] | 10.5
CN1C(=O)N(c2cccc(C(F)(F)F)c2)C2=C(C(=O)CC2)C1c1ccc(C#N)cc1C(=O)N1CCN2CCOCC2C1 (stereo not drawn) [Example 1.35] | 16.2
CN1C(=O)N(c2cccc(C(F)(F)F)c2)C2=C(C(=O)CC2)C1c1ccc(C#N)cc1C(=O)NCc1ccco1 (stereo not drawn) [Example 1.36] | 2.2
CN1C(=O)N(c2cccc(C(F)(F)F)c2)C2=C(C(=O)CC2)C1c1ccc(C#N)cc1C(=O)NCc1ccoc1 (stereo not drawn) [Example 1.37] | 3.4
CN1C(=O)N(c2cccc(C(F)(F)F)c2)C2=C(C(=O)CC2)C1c1ccc(C#N)cc1C(=O)NCc1cn[nH]c1 (stereo not drawn) [Example 1.38] | 5
CN1C(=O)N(c2cccc(C(F)(F)F)c2)C2=C(C(=O)CC2)C1c1ccc(C#N)cc1C(=O)NCc1ccno1 (stereo not drawn) [Example 1.39] | 1.9
CN1C(=O)N(c2cccc(C(F)(F)F)c2)C2=C(C(=O)CC2)C1c1ccc(C#N)cc1C(=O)NCc1cnco1 (stereo not drawn) [Example 1.40] | 1
CN1C(=O)N(c2cccc(C(F)(F)F)c2)C2=C(C(=O)CC2)C1c1ccc(C#N)cc1C(=O)NCc1ncco1 (stereo not drawn) [Example 1.41] | 3.8
CN1C(=O)N(c2cccc(C(F)(F)F)c2)C2=C(C(=O)CC2)C1c1ccc(C#N)cc1C(=O)NCc1cnoc1 (stereo not drawn) [Example 1.42] | 1.9
CN1C(=O)N(c2cccc(C(F)(F)F)c2)C2=C(C(=O)CC2)C1c1ccc(C#N)cc1C(=O)NCc1ccon1 (stereo not drawn) [Example 1.43] | 2
CN1C(=O)N(c2cccc(C(F)(F)F)c2)C2=C(C(=O)CC2)C1c1ccc(C#N)cc1C(=O)NCc1cocn1 (stereo not drawn) [Example 1.44] | 3.4
CN1C(=O)N(c2cccc(C(F)(F)F)c2)C2=C(C(=O)CC2)C1c1ccc(C#N)cc1C(=O)NCc1ccccc1 (stereo not drawn) [Example 1.45] | 5.3

SMILES | IC50 [nM]
CN1C(=O)N(c2cccc(C(F)(F)F)c2)C2=C(C(=O)CC2)C1c1ccc(C#N)cc1C(=O)NCc1cccnc1 (stereo not drawn) [Example 1.46] | 3.9
CN1C(=O)N(c2cccc(C(F)(F)F)c2)C2=C(C(=O)CC2)C1c1ccc(C#N)cc1C(=O)NCc1ccccn1 (stereo not drawn) [Example 1.47] | 4.2
CN1C(=O)N(c2cccc(C(F)(F)F)c2)C2=C(C(=O)CC2)C1c1ccc(C#N)cc1C(=O)NCc1ccncc1 (stereo not drawn) [Example 1.48] | 4.1
CN1C(=O)N(c2cccc(C(F)(F)F)c2)C2=C(C(=O)CC2)C1c1ccc(C#N)cc1C(=O)NCc1ccnnc1 (stereo not drawn) [Example 1.49] | 5
CN1C(=O)N(c2cccc(C(F)(F)F)c2)C2=C(C(=O)CC2)C1c1ccc(C#N)cc1C(=O)NCc1cccnn1 (stereo not drawn) [Example 1.50] | 2.9
CC(NC(=O)c1cc(C#N)ccc1C1C2=C(CCC2=O)N(c2cccc(C(F)(F)F)c2)C(=O)N1C)c1ccco1 (stereo not drawn) [Example 1.51] | 6.6
CN1C(=O)N(c2cccc(C(F)(F)F)c2)C2=C(C(=O)CC2)C1c1ccc(C#N)cc1C(=O)NCc1cncn1C (stereo not drawn) [Example 1.52] | 4.2
CN1C(=O)N(c2cccc(C(F)(F)F)c2)C2=C(C(=O)CC2)C1c1ccc(C#N)cc1C(=O)NCc1ccn(C)n1 (stereo not drawn) [Example 1.53] | 2.2
CN1C(=O)N(c2cccc(C(F)(F)F)c2)C2=C(C(=O)CC2)C1c1ccc(C#N)cc1C(=O)NCc1cn(C)cn1 (stereo not drawn) [Example 1.54] | 6.9
CN1C(=O)N(c2cccc(C(F)(F)F)c2)C2=C(C(=O)CC2)C1c1ccc(C#N)cc1C(=O)NCc1cnn(C)c1 (stereo not drawn) [Example 1.55] | 4.8
CN1C(=O)N(c2cccc(C(F)(F)F)c2)C2=C(C(=O)CC2)C1c1ccc(C#N)cc1C(=O)NCc1ccnn1C (stereo not drawn) [Example 1.56] | 5.4
CN(Cc1cn[nH]c1)C(=O)c1cc(C#N)ccc1C1C2=C(CCC2=O)N(c2cccc(C(F)(F)F)c2)C(=O)N1C (stereo not drawn) [Example 1.57] | < 1
CN1C(=O)N(c2cccc(C(F)(F)F)c2)C2=C(C(=O)CC2)C1c1ccc(C#N)cc1C(=O)NCc1nccn1C (stereo not drawn) [Example 1.58] | 2.4
CN(Cc1ccon1)C(=O)c1cc(C#N)ccc1C1C2=C(CCC2=O)N(c2cccc(C(F)(F)F)c2)C(=O)N1C (stereo not drawn) [Example 1.59] | 1.1
CN(Cc1ccno1)C(=O)c1cc(C#N)ccc1C1C2=C(CCC2=O)N(c2cccc(C(F)(F)F)c2)C(=O)N1C (stereo not drawn) [Example 1.60] | < 1
CN1C(=O)N(c2cccc(C(F)(F)F)c2)C2=C(C(=O)CC2)C1c1ccc(C#N)cc1C(=O)NCc1nncn1C (stereo not drawn) [Example 1.61] | 6
CN1C(=O)N(c2cccc(C(F)(F)F)c2)C2=C(C(=O)CC2)C1c1ccc(C#N)cc1C(=O)NCc1nnnn1C (stereo not drawn) [Example 1.62] | 2.5
CN1C(=O)N(c2cccc(C(F)(F)F)c2)C2=C(C(=O)CC2)C1c1ccc(C#N)cc1C(=O)N1Cc2ccncc2C1 (stereo not drawn) [Example 1.63] | 3.9
CN1C(=O)N(c2cccc(C(F)(F)F)c2)C2=C(C(=O)CC2)C1c1ccc(C#N)cc1C(=O)NCc1ccc(C#N)o1 (stereo not drawn) [Example 1.64] | 6.9
CN(Cc1ccncc1)C(=O)c1cc(C#N)ccc1C1C2=C(CCC2=O)N(c2cccc(C(F)(F)F)c2)C(=O)N1C (stereo not drawn) [Example 1.65] | 1.7
CN1C(=O)N(c2cccc(C(F)(F)F)c2)C2=C(C(=O)CC2)C1c1ccc(C#N)cc1C(=O)N1CCn2cncc2C1 (stereo not drawn) [Example 1.66] | 7.1
